{"source": "patent US9120805B2", "about": "“Substituted pyrrolo[1,2-A]pyrazin-1-ones and pyrazolo[1,5-A]pyrazin-4-ones as inhibitors of tankyrase and poly(ADP-ribose)polymerase activity” (Merck Patent GmbH, priority 2012, dated 2015)", "origin": "cited, not measured here", "key": {"β-catenin": {"test_system": "β-catenin", "conditions": "literature (Huang et al., 2009); by increasing AXIN1 and AXIN2 levels; cited from earlier work"}, "DLD-1-cancer cells": {"test_system": "DLD-1-cancer cells", "conditions": "literature (Huang et al., 2009); cited from earlier work"}}}
{"smiles": "Oc1nc(-c2ccc(C(F)(F)F)cc2)nc2c1CSCC2", "note": "[XAV939]", "values": [{"measurement": "Wnt-stimulated accumulation of β-catenin", "setting": "β-catenin", "result": "blocked Wnt-stimulated accumulation of β-catenin"}, {"measurement": "growth of DLD-1-cancer cells", "setting": "DLD-1-cancer cells", "result": "inhibits growth"}]}
